Here are results for 6 molecules from publication PMC9393241, “Design, Synthesis, and Activity Assays of Cyclin-Dependent Kinase 1 Inhibitors With Flavone Scaffolds” (Frontiers in Chemistry, 2022).

Usually inhibition stands for the relative decrease from the control value, in per cent. The term melting point denotes the temperature, or range, at which the solid turns liquid.

SMILES strings stand for the structures.

The target of one data set is T1, CDK1/cyclin B1 (Homo sapiens, UniProt P06493).
T1 construct: purchased
T1 sequence (P06493 whole entry): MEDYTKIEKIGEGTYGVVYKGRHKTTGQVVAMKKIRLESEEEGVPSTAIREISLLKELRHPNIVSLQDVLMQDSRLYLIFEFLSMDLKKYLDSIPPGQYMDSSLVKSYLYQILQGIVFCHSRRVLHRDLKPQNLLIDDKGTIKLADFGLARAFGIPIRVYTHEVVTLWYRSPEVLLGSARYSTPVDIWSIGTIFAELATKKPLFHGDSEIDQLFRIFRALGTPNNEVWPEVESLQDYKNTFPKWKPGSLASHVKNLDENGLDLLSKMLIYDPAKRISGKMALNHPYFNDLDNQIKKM
T1 sequence (P14635 whole entry partner): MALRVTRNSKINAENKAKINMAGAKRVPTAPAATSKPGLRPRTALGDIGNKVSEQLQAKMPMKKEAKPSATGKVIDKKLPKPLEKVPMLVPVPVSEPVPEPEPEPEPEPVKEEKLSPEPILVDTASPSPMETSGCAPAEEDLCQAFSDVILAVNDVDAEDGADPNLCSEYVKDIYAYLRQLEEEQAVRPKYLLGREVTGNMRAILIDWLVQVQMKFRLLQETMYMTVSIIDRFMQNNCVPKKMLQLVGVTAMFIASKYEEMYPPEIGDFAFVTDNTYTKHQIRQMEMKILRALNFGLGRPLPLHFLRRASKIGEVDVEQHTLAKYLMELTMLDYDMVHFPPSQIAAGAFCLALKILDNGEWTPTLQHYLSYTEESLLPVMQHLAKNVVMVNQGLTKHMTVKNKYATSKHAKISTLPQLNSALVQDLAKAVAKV
The data set can be described thus: In vitro anti-CDK1/cyclin B1 kinase assay (Kinase-Glo luminescence). It counts as biochemical. The note with it: for Selectivity: CDK1 compared with CDK4 (CDK4 IC50 / CDK1 IC50); for inhibition at 20 µM: test compounds at 20 μM, read-out: Inhibition rates (%) CDK1. As to the method: (§1) In vitro anti-CDK1/cyclin B1 and CDK4/cyclin D3 assays were performed as described by the manufacturer. All test compounds and controls were dissolved in dimethyl sulfoxide (DMSO) to prepare 50 μM stock solutions. The stock solutions were diluted by double-distilled water and buffer to 40, 30, 20, and 10 μM working concentrations and stored at −20°C. Buffer, ATP, CDK substrate […], and distilled water were mixed, and then 25 μl of the mixture was added to a 96-well plate. Five microliters of 20 μM test compounds were sequentially added. CDK1/cyclin B1 was diluted to 1 ng/μl, and CDK4/cyclin D3 was diluted to 10 ng/μl using a buffer. Twenty microliters of the kinase solutions were incubated with the test compounds at 30°C for 45 min for CDK1/cyclin B1 and for 60 min for CDK4/cyclin D3. Finally, 50 μl of Kinase-Glo Max reagent was added to each well. The 96-well plate was covered with aluminum foil and incubated at room temperature for 15 min. Luminescence of the test compounds was measured with a microplate reader.

The target of a further data set is T2, CDK4/cyclin D3 (Homo sapiens, UniProt P11802).
T2 construct: purchased
T2 sequence (P11802 whole entry): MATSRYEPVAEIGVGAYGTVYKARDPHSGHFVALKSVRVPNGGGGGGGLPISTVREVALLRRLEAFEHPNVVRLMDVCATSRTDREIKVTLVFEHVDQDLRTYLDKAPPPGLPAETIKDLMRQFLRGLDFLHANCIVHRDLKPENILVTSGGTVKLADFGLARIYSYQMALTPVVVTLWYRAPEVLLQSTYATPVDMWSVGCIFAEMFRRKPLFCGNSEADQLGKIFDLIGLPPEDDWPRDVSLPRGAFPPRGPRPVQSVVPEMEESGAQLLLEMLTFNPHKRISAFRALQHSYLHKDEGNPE
T2 sequence (P30281 whole entry partner): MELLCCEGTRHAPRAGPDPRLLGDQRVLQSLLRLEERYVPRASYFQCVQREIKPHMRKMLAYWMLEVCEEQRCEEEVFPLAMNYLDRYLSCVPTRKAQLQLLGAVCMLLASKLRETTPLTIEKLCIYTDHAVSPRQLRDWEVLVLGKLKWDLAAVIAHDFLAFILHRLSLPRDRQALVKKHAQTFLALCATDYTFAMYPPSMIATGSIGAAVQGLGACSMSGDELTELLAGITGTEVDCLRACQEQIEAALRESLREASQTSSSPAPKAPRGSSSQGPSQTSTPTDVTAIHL
The data set can be described thus: In vitro anti-CDK4/cyclin D3 kinase assay (Kinase-Glo luminescence). It counts as biochemical. The settings on record: for inhibition at 20 µM: test compounds at 20 μM, read-out: Inhibition rates (%) CDK4. As to the method: as §1
(Kinase-Glo reads ATP consumption through a luciferase reaction.)

The subject of another data set is MCF-7 tumor cell. The arrangement: method as in Mou et al., 2021a. The note with it: concentration of 50 μg/ml; ref Mou et al., 2021a; cited from earlier work.
Another data set has as its system RAW264.7 cells. The data set can be described thus: Cell growth inhibition assay (CCK-8), RAW264.7. The note with it: Mus musculus, 24 h. It counts as cell-based. As to the method:
(§2) All test compounds and controls were dissolved in DMSO to prepare 250 μM stock solutions. The stock solutions were filtered through a […] and diluted into five concentrations (0.1–250 μM) with DMEM medium. MCF-7 and RAW264.7 cells were inoculated at a concentration of 5,000 cells/100 μl/well into a 96-well plate for 24 h at 37°C in a humidified atmosphere containing 5% CO2. After 24 h of culture, the primary medium was discarded and replaced with 100 μl of fresh DMEM medium containing different concentrations of test compounds in triplicate. After another 24 h of culture, the medium was replaced with 100 μl of fresh DMEM medium containing 10% (v/v) CCK-8 reagent in each well for 2 h at 37°C. The OD value was measured at a wavelength of 450 nm. Cell viability was determined using the following equation: Cell viability=(ODsample-ODnegative control/ODpositive control-ODnegative control)×100% where OD positive control is the absorbance at 450 nm obtained from untreated cells. OD negative control is the absorbance obtained from a blank well containing the cell culture medium and CCK-8 reagent. The IC50 values were calculated from the plot of activity vs. inhibitor concentration by using the GraphPad Prism 5 software ([Yu et al., 2020]).

The test system of another data set is MCF-7 cells. The data set can be described thus: Cell growth inhibition assay (CCK-8), MCF-7. It counts as cell-based. The note with it: Homo sapiens, MCF7, 24 h. As to the method: as §2
The target in a further data set is CDK1/cyclin B kinase. The arrangement: method as in Mou et al., 2021a. The settings on record: ref Mou et al., 2021a; read-out: IC50 against CDK1/cyclin B kinase; cited from earlier work.

Turning to `CCn1cnc2c(Nc3cccc(Cl)c3)nc(NC3CCCCC3N)nc21` (centres unmarked) [CGP74514 A, reference compound], on CDK1/cyclin B1, the IC50 came out at 10.9 ± 0.89 µM, the Selectivity stood at 3.28 and the inhibition at 20 µM was 62.5 ± 0.05%. On CDK4/cyclin D3, the IC50 is 35.6 ± 1.02 µM and the inhibition at 20 µM amounted to 48.52 ± 0.04%. In the data set on MCF-7 tumor cell, the “inhibition rate against MCF-7 tumor cell proliferation” value (“inhibition rate” below) is listed as 96.7%.
`O=c1cc(-c2ccccc2)oc2c(CN3CCOCC3)c3c(c(O)c12)OCCCCO3` [Compound 2a, 12-Hydroxy-7-(morpholinomethyl)-9-phenyl-2,3,4,5-tetrahydro-[1,4]dioxocino[2,3-g]chromen-11-one] registered a melting point of 213.8 to 214.3 °C. In addition, the IC50 in the data set with RAW264.7 cells is 2.54 ± 0.12 µM. Also, on CDK1/cyclin B1, the IC50 stood at 36.4 ± 1.12 µM and the inhibition at 20 µM came to 33.05 ± 0.12%. The IC50 in the data set on MCF-7 cells came to 79.7 ± 1.81 µM. Besides, the “inhibition rate” value in the data set on MCF-7 tumor cell was 96.7%.
As for `O=c1cc(-c2ccccc2)oc2c(CN3CCOCC3)c(O)c(CN3CCOCC3)c(O)c12` [Compound 5c, 5,7-Dihydroxy-6,8-bis(morpholinomethyl)-2-phenyl-4H-chromen-4-one], the melting point was in the range of 199.2 to 199.6 °C. Besides, in the data set with RAW264.7 cells, the IC50 was 59.4 ± 1.23 µM. Besides, on CDK1/cyclin B1, the IC50 came to 39.6 ± 1.43 µM, the Selectivity is recorded as 12.85 and the inhibition at 20 µM is 38.34 ± 0.08%. For the same molecule, on CDK4/cyclin D3, the IC50 amounted to 508 ± 5.56 µM and the inhibition at 20 µM came to 8.15 ± 0.06%. In the data set with MCF-7 cells, the IC50 came to 76.9 ± 1.47 µM.
Molecule `COc1ccc(-c2cc(=O)c3c(O)cc(OCCBr)cc3o2)cc1` [Compound 12c, 7-(2-Bromoethoxy)-5-hydroxy-2-(4-methoxyphenyl)-4H-chromen-4-one] gave a melting point of 175.2 to 175.7 °C. For the same molecule, the IC50 with RAW264.7 cells was 68.4 ± 0.99 µM. In addition, at CDK1/cyclin B1, the IC50 stood at 43.6 ± 1.53 µM and the inhibition at 20 µM amounted to 37.6 ± 0.12%. Moreover, the inhibition at 20 µM on CDK4/cyclin D3 came to 1.43 ± 0.06%. The same molecule yielded an IC50 in the data set with MCF-7 cells of 131 ± 2.35 µM.
With `CN1CC[C@H](c2c(O)cc(O)c3c(=O)cc(-c4ccccc4Cl)oc23)[C@H](O)C1` [flavopiridol, reference compound], the IC50 in the data set on RAW264.7 cells is 0.55 ± 0.05 µM; in the data set with MCF-7 cells, 294 ± 3.13 µM. In addition, the inhibition at 20 µM at CDK1/cyclin B1 came to 86.79 ± 0.04%; on CDK4/cyclin D3 it was 89.71 ± 0.03%. For the same molecule, the “inhibition rate” value with MCF-7 tumor cell is given as 90.0%.
On to `C=C(C)C(=O)Oc1c(O)c(O)c2c(=O)cc(-c3ccccc3)oc2c1CN1CCN(C)CC1` [pro3o], for which the IC50 at CDK1/cyclin B kinase is 1.26 µM.
